US11413261B2, “Pharmaceutical composition for treating cancer comprising lactate metal salt” (METIMEDI PHARMACEUTICALS CO., LTD, priority 2014, dated 2022)

Key:
[1] = tested on: human colorectal cancer cell lines (HT-29 and HCT-116); assay: Colony-forming ability, anticancer drug in combination with calcium lactate (6-well plates); assay type: cell-based; settings: vs control
Description: Human colorectal cancer cell lines (HT-29 and HCT-116) with the cell number of 1×10^3 cells were seeded into an RPMI1640 medium in each of 6-well plates. After one day, the medium was replaced with fresh medium and the cells were treated with 2.5 mM calcium lactate or 1 μM, 2.5 μM, and 5 μM Imatinib alone or treated with various concentrations (1 μM, 2.5 μM, and 5 μM) of Imatinib in combination with 2.5 mM calcium lactate. Then, the colony-forming abilities of the cells were compared. In this case, human colorectal cancer cell lines (HT-29 and HCT-116) untreated with any drug were used as control groups (FIGS. 38a, 38b, 39a and 39b).
Human colorectal cancer cell lines (HT-29 and HCT-116) with the cell number of 1×10^3 cells were seeded into an RPMI1640 medium in each of 6-well plates. After one day, the medium was replaced with fresh medium and the cells were treated with 2.5 mM calcium lactate or 2.5 μM, 5 μM, and 10 μM 5-FU alone or treated with various concentrations (2.5 μM, 5 μM, and 10 μM) of 5-FU in combination with 2.5 mM calcium lactate. Then, the colony-forming abilities of the cells were compared. In this case, human colorectal cancer cell lines (HT-29 and HCT-116) untreated with any drug were used as control groups (FIGS. 40a, 40 b, 41a and 41b).

[2] = tested on: human colorectal cancer cell line HCT-116; settings: 5 mM CA individually, 10 days
[3] = tested on: human lung cancer cell line (A549); assay: Colony-forming ability, anticancer drug in combination with calcium lactate (6-well plates); assay type: cell-based; settings: vs control
Description: Human breast cancer cell line (MCF-7) and a human lung cancer cell line (A549) with the cell number of 1×10^3 cells were seeded into an RPMI1640 medium in each of 6-well plates. […]. Then, the colony-forming abilities of the cells were compared. In this case, a human breast cancer cell line (MCF-7) and a human lung cancer cell line (A549) untreated with any drug were used as control groups (FIGS. 42a, 42b, 43a and 43b).
(§1) Human lung cancer cell line (A549) with the cell number of 1×10^3 cells were seeded into an RPMI1640 medium in each of 6-well plates. […]. Then, the colony-forming abilities of the cells were compared. In this case, a human lung cancer cell line (A549) untreated with any drug was used as a control group (FIGS. 44a and 44b).
as §1, with “47a” for “44a”, “47b).” for “44b).”
as §1, with “49a” for “44a”, “49b).” for “44b).”
as §1, with “50a” for “44a”, “50b).” for “44b).”
as §1, with “51a” for “44a”, “51b).” for “44b).”

[4] = tested on: human kidney cancer cell line (Caki-1); assay: as above; assay type: cell-based; settings: 0.3, 0.5, 1 nM Everolimus alone, vs control
Description: Human kidney cancer cell line (Caki-1) with the cell number of 1×10^3 cells were seeded into an RPMI1640 medium in each of 6-well plates. After one day, the medium was replaced with fresh medium and the cells were treated with 0.3 nM, 0.5 nM, and 1 nM Everolimus alone or treated with various concentrations (0.3 nM, 0.5 nM, and 1 nM) of Everolimus in combination with 2.5 mM calcium lactate. Then, the colony-forming abilities of the cells were compared. In this case, a human kidney cancer cell line (Caki-1) untreated with any drug was used as a control group (FIGS. 53a and 53b).

[5] = tested on: human colorectal cancer cell line (HT-29); assay: as above; assay type: cell-based; settings: vs control
Description: as §1, with “colorectal” for “lung”, “(HT-29)” for “(A549)”, “46a” for “44a”, “46b).” for “44b).”
as §1, with “colorectal” for “lung”, “(HT-29)” for “(A549)”, “48a” for “44a”, “48b).” for “44b).”
as §1, with “colorectal” for “lung”, “(HT-29)” for “(A549)”, “(FIG. 55).” for “(FIGS. 44a and 44b).”

[6] = tested on: human breast cancer cell line (MCF-7); assay: as above; assay type: cell-based; settings: vs control
Description: Human breast cancer cell line (MCF-7) and a human lung cancer cell line (A549) with the cell number of 1×10^3 cells were seeded into an RPMI1640 medium in each of 6-well plates. […] Then, the colony-forming abilities of the cells were compared. In this case, a human breast cancer cell line (MCF-7) and a human lung cancer cell line (A549) untreated with any drug were used as control groups (FIGS. 42a, 42b, 43a and 43b).
Human breast cancer cell line (MCF-7) with the cell number of 1×10^3 cells were seeded into an RPMI1640 medium in each of 6-well plates. After one day, the medium was replaced with fresh medium and the cells were treated with 2.5 mM calcium lactate or 2 μM, 4 μM, and 8 μM Lapatinib alone or treated with various concentrations (2 μM, 4 μM, and 8 μM) of Lapatinib in combination with 2.5 mM calcium lactate. Then, the colony-forming abilities of the cells were compared. In this case, a human breast cancer cell line (MCF-7) untreated with any drug was used as a control group (FIGS. 52a and 52b).

[7] = tested on: human liver cancer cell line (Hep3B); assay: as above; assay type: cell-based; settings: 1, 2.5, 5 μM Sorafenib alone, vs control
Description: Human liver cancer cell line (Hep3B) with the cell number of 1×10^3 cells were seeded into an RPMI1640 medium in each of 6-well plates. After one day, the medium was replaced with fresh medium and the cells were treated with 2.5 mM calcium lactate or 1 μM, 2.5 μM, and 5 μM Sorafenib alone or treated with various concentrations (1 μM, 2.5 μM, and 5 μM) of Sorafenib in combination with 2.5 mM calcium lactate. Then, the colony-forming abilities of the cells were compared. In this case, a human liver cancer cell line (Hep3B) untreated with any drug was used as a control group (FIGS. 45a and 45b).

[8] = tested on: human vascular endothelial cell (HUVEC); assay: Tube formation of HUVEC in culture supernatants of treated cancer cell lines; assay type: cell-based; settings: HUVEC treated with Sulforaphane (comparison group)
Text: A human vascular endothelial cell (HUVEC) was inoculated into each of the obtained culture supernatant and cultured to analyze a conformational change of cells (FIG. 17). In this case, an HUVEC cultured using the culture medium of a cancer cell line cultured without treating with calcium lactate was used as a control group, and an HUVEC cultured with the treatment with Sulforaphane, which is a growth inhibitor of an HUVEC, was used as a comparison group.

[9] = tested on: cancer cell; assay: Dissociation of metal lactate salts to lactate in a cancer cell; assay type: cell-based
[10] = 0.63, 1.3, 2.5 nM Paclitaxel alone

Structure (SMILES): O=c1[nH]cc(F)c(=O)[nH]1 [5-FU]
- colony-forming ability ([1]; 2.5, 5, 10 μM 5-FU alone): suppressed

Structure (SMILES): O=C(O)C=Cc1ccccc1 [CA, cinnamic acid, reference compound]
- survival rate [2]: about 60%

Structure (SMILES): N.N.O=C([O-])C1(C(=O)[O-])CCC1.[Pt+2] [Carboplatin]
- colony-forming ability ([3]; 2.5, 5, 10 μM Carboplatin alone): suppressed

Structure (SMILES): CC(=O)O[C@@]12CO[C@@H]1C[C@H](O)[C@@]1(C)C(=O)[C@H](O)C3=C(C)[C@@H](OC(=O)[C@H](O)[C@@H](NC(=O)OC(C)(C)C)c4ccccc4)C[C@@](O)([C@@H](OC(=O)c4ccccc4)[C@H]21)C3(C)C [Docetaxel]
- colony-forming ability ([3]; 0.6, 1.3, 2.5 nM Docetaxel alone): suppressed

Structure (SMILES): C#Cc1cccc(Nc2ncnc3cc(OCCOC)c(OCCOC)cc23)c1 [Erlotinib]
- colony-forming ability ([3]; 0.5, 1, 2 μM Erlotinib alone): suppressed

Structure (SMILES): CO[C@H]1C[C@@H]2CC[C@@H](C)[C@@](O)(O2)C(=O)C(=O)N2CCCC[C@H]2C(=O)O[C@H]([C@H](C)C[C@@H]2CC[C@@H](OCCO)[C@H](OC)C2)CC(=O)[C@H](C)/C=C(\C)[C@@H](O)[C@@H](OC)C(=O)[C@H](C)C[C@H](C)/C=C/C=C/C=C/1C [Everolimus, reference compound]
- colony-forming ability [4]: suppressed

Structure (SMILES): COc1cc2ncnc(Nc3ccc(F)c(Cl)c3)c2cc1OCCCN1CCOCC1 [Gefitinib]
- colony-forming ability ([3]; 1.3, 2.5, 5 μM Gefitinib alone): suppressed

Structure (SMILES): Cc1ccc(NC(=O)c2ccc(CN3CCN(C)CC3)cc2)cc1Nc1nccc(-c2cccnc2)n1 [Imatinib]
- colony-forming ability ([1]; 1, 2.5, 5 μM Imatinib alone): suppressed

Structure (SMILES): CCc1c2c(nc3ccc(OC(=O)N4CCC(N5CCCCC5)CC4)cc13)-c1cc3c(c(=O)n1C2)COC(=O)[C@]3(O)CC [Irinotecan]
- colony-forming ability ([5]; 0.5, 1, 2 μM Irinotecan alone): suppressed

Structure (SMILES): CS(=O)(=O)CCNCc1ccc(-c2ccc3ncnc(Nc4ccc(OCc5cccc(F)c5)c(Cl)c4)c3c2)o1 [Lapatinib]
- colony-forming ability ([6]; 2, 4, 8 μM Lapatinib alone): suppressed

Structure (SMILES): CN(Cc1cnc2nc(N)nc(N)c2n1)c1ccc(C(=O)N[C@@H](CCC(=O)O)C(=O)O)cc1 [Methotrexate]
- colony-forming ability ([3]; 5, 10, 20 nM Methotrexate alone): suppressed

Structure (SMILES): O=C1[O][Pt]2([NH][C@@H]3CCCC[C@H]3[NH]2)[O]C1=O [Oxaliplatin]
- colony-forming ability ([5]; 1.3, 2.5, 5 μM Oxaliplatin alone): suppressed

Structure (SMILES): CC(=O)O[C@H]1C(=O)[C@@]2(C)[C@H]([C@H](OC(=O)c3ccccc3)[C@]3(O)C[C@H](OC(=O)[C@H](O)[C@@H](NC(=O)c4ccccc4)c4ccccc4)C(C)=C1C3(C)C)[C@]1(OC(C)=O)CO[C@@H]1C[C@@H]2O [Paclitaxel]
- colony-forming ability [6, 10]: suppressed
- colony-forming ability [3, 10]: suppressed

Structure (SMILES): CNC(=O)c1cc(Oc2ccc(NC(=O)Nc3ccc(Cl)c(C(F)(F)F)c3)cc2)ccn1 [Sorafenib, reference compound]
- colony-forming ability [7]: suppressed

Structure (SMILES): C[S+]([O-])CCCCN=C=S (stereo not drawn) [Sulforaphane, reference compound]
- tube-forming ability of HUVEC [8]: reduced tube-forming ability

Structure (SMILES): CC(O)C(=O)[O-].[K+] (stereo not drawn) [potassium lactate]
- dissociation to lactate in a cancer cell [9]: can be dissociated to lactate

Structure (SMILES): CC(O)C(=O)[O-].[Na+] (stereo not drawn) [sodium lactate]
- dissociation to lactate in a cancer cell [9]: can be dissociated to lactate
